# Source: PubChem BioAssay AID248 (DTP/NCI, 2004)
# “And” between values parts separate entries of the source, which are not always exact repeats. Identical values can stand only once. Toxic doses and inconclusive results are not listed.
# System: L1210 leukemia ip in BDF1 mice, survival T/C
# Assay: NCI In Vivo Anticancer Drug Screen. Data for tumor model L1210 Leukemia (intraperitoneal) in B6D2F1 (BDF1) mice
# Settings: endpoint: mean survival time, higher = longer survival
# Procedure, shortened: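 Mice bearing the transplanted tumor received compound or vehicle. Survival of the treated group was divided by that of the vehicle-treated control group to give the ratio.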
# [1] = dose: 50.0 mg/kg/injection, schedule: Q04DX003 (ip), vehicle: Klucel (hydroxypropylcellulose) (HPC)
# [2] = dose: 100.0 mg/kg/injection, schedule: Q04DX003 (ip), vehicle: saline with Tween-80
# [3] = dose: 100.0 mg/kg/injection, schedule: Q04DX003 (ip), vehicle: Klucel (hydroxypropylcellulose) (HPC)
# [4] = dose: 200.0 mg/kg/injection, schedule: Q04DX003 (ip), vehicle: Klucel (hydroxypropylcellulose) (HPC)
# [5] = dose: 400.0 mg/kg/injection, schedule: Q04DX003 (ip), vehicle: Klucel (hydroxypropylcellulose) (HPC)
# [6] = dose: 100.0 mg/kg/injection, schedule: Q01DX001 (ip), vehicle: Klucel (hydroxypropylcellulose) (HPC)
# [7] = dose: 200.0 mg/kg/injection, schedule: Q01DX001 (ip), vehicle: Klucel (hydroxypropylcellulose) (HPC)
# [8] = dose: 100.0 mg/kg/injection, schedule: Q01DX009 (ip), vehicle: saline with Tween-80
structure (smiles),measurement,setting,value
Cc1ccnc(NS(=O)(=O)c2ccc(N=Nc3nc4[nH]c(N)nc(=S)c4[nH]3)cc2)n1,T/C,"dose: 1.56 mg/kg/injection, schedule: Q01DX009 (ip), vehicle: Klucel (hydroxypropylcellulose) (HPC)",230 % of control
same,T/C,"dose: 12.5 mg/kg/injection, schedule: Q01DX009 (ip), vehicle: Klucel (hydroxypropylcellulose) (HPC)",94 % of control and 108 % of control
same,T/C,"dose: 25.0 mg/kg/injection, schedule: Q04DX003 (ip), vehicle: Klucel (hydroxypropylcellulose) (HPC)",162 % of control and 180 % of control
same,T/C,[1],173 % of control and 182 % of control and 192 % of control
Cc1cc(=O)c(O)c(N(C)C)o1,T/C,"dose: 100.0 mg/kg/injection, schedule: Q04DX002 (ip), vehicle: saline with Tween-80",102 % of control
same,T/C,"dose: 200.0 mg/kg/injection, schedule: Q04DX002 (ip), vehicle: saline with Tween-80",102 % of control
same,T/C,"dose: 400.0 mg/kg/injection, schedule: Q04DX002 (ip), vehicle: saline with Tween-80",115 % of control
CC/C=C\CCCCCCO,T/C,"dose: 100.0 mg/kg/injection, schedule: Q01DX001 (ip), vehicle: carboxymethylcellulose (CMC)",97 % of control and 94 % of control
same,T/C,"dose: 200.0 mg/kg/injection, schedule: Q01DX001 (ip), vehicle: carboxymethylcellulose (CMC)",94 % of control
same,T/C,"dose: 400.0 mg/kg/injection, schedule: Q01DX001 (ip), vehicle: carboxymethylcellulose (CMC)",89 % of control and 97 % of control
Cc1ccc(C(C)(Cl)/N=N\C(C)(Cl)c2ccc([N+](=O)[O-])cc2)cc1 (stereo not given),T/C,[2],90 % of control
same,T/C,"dose: 200.0 mg/kg/injection, schedule: Q04DX003 (ip), vehicle: saline with Tween-80",96 % of control
same,T/C,"dose: 400.0 mg/kg/injection, schedule: Q04DX003 (ip), vehicle: saline with Tween-80",98 % of control
C(=N\Nc1ccc2ccccc2n1)/c1ccccn1,T/C,"dose: 9.5 mg/kg/injection, schedule: Q01DX001 (ip), vehicle: other",94 % of control
same,T/C,"dose: 19.0 mg/kg/injection, schedule: Q01DX001 (ip), vehicle: other",103 % of control
same,T/C,"dose: 38.0 mg/kg/injection, schedule: Q01DX001 (ip), vehicle: other",94 % of control
same,T/C,"dose: 75.0 mg/kg/injection, schedule: Q01DX001 (ip), vehicle: other",108 % of control
Cc1noc(C)c1CON,T/C,"dose: 75.0 mg/kg/injection, schedule: Q01DX001 (ip), vehicle: saline",100 % of control and 102 % of control
same,T/C,"dose: 150.0 mg/kg/injection, schedule: Q01DX001 (ip), vehicle: saline",105 % of control
same,T/C,"dose: 300.0 mg/kg/injection, schedule: Q01DX001 (ip), vehicle: saline",94 % of control and 91 % of control
O=c1oc2ccccc2c(O)c1C(c1ccc2c(c1)CCC2)c1c(O)c2ccccc2oc1=O,T/C,[3],92 % of control
same,T/C,[4],100 % of control
same,T/C,[5],92 % of control
C[Si](C)(C)N1N=NC2C(=O)N(c3ccccc3)C(=O)C21 (stereo not given),T/C,"dose: 100.0 mg/kg/injection, schedule: Q01DX009 (ip), vehicle: Klucel (hydroxypropylcellulose) (HPC)",105 % of control
same,T/C,[3],92 % of control
same,T/C,"dose: 200.0 mg/kg/injection, schedule: Q01DX009 (ip), vehicle: Klucel (hydroxypropylcellulose) (HPC)",110 % of control
same,T/C,[4],102 % of control
same,T/C,"dose: 400.0 mg/kg/injection, schedule: Q01DX009 (ip), vehicle: Klucel (hydroxypropylcellulose) (HPC)",112 % of control
same,T/C,[5],103 % of control
Cc1c(CO)[nH]c(=S)[nH]c1=O,T/C,"dose: 50.0 mg/kg/injection, schedule: Q01DX001 (ip), vehicle: Klucel (hydroxypropylcellulose) (HPC)",103 % of control
same,T/C,[1],100 % of control
same,T/C,[6],95 % of control
same,T/C,[3],92 % of control
same,T/C,[7],97 % of control
same,T/C,[4],89 % of control
COC(C)(C)C(C)O (stereo not given),T/C,"dose: 50.0 mg/kg/injection, schedule: Q01DX009 (ip), vehicle: saline",100 % of control
same,T/C,"dose: 100.0 mg/kg/injection, schedule: Q01DX009 (ip), vehicle: saline",96 % of control
same,T/C,"dose: 200.0 mg/kg/injection, schedule: Q01DX009 (ip), vehicle: saline",100 % of control
Cc1c2cnccc2c(C)c2c1c1ccccc1n2CCCCl,T/C,[6],102 % of control
same,T/C,[3],96 % of control
same,T/C,[7],96 % of control
same,T/C,[4],94 % of control
same,T/C,"dose: 400.0 mg/kg/injection, schedule: Q01DX001 (ip), vehicle: Klucel (hydroxypropylcellulose) (HPC)",94 % of control
same,T/C,[5],96 % of control
O=c1ssc(=Nc2ccccc2)n1-c1ccccc1,T/C,"dose: 100.0 mg/kg/injection, schedule: Q04DX003 (ip), vehicle: gum acacia",103 % of control
same,T/C,"dose: 200.0 mg/kg/injection, schedule: Q04DX003 (ip), vehicle: gum acacia",104 % of control
same,T/C,"dose: 400.0 mg/kg/injection, schedule: Q04DX003 (ip), vehicle: gum acacia",101 % of control
Cc1cc(C)c(CN)cc1CN,T/C,"dose: 25.0 mg/kg/injection, schedule: Q01DX009 (ip), vehicle: saline with Tween-80",95 % of control
same,T/C,"dose: 50.0 mg/kg/injection, schedule: Q01DX009 (ip), vehicle: saline with Tween-80",98 % of control
same,T/C,[8],100 % of control
same,T/C,[2],97 % of control
CCOc1ccc(NC(=S)NC(=O)c2ccco2)cc1,T/C,[8],93 % of control
same,T/C,[3],104 % of control
same,T/C,"dose: 200.0 mg/kg/injection, schedule: Q01DX009 (ip), vehicle: saline with Tween-80",93 % of control
same,T/C,[4],94 % of control
same,T/C,[5],100 % of control
Cc1cc(C)c(N(CC(=O)O)S(=O)(=O)c2ccccc2)c(C)c1Br,T/C,"dose: 75.0 mg/kg/injection, schedule: Q04DX003 (ip), vehicle: Klucel (hydroxypropylcellulose) (HPC)",92 % of control
same,T/C,"dose: 150.0 mg/kg/injection, schedule: Q04DX003 (ip), vehicle: Klucel (hydroxypropylcellulose) (HPC)",90 % of control
same,T/C,"dose: 300.0 mg/kg/injection, schedule: Q04DX003 (ip), vehicle: Klucel (hydroxypropylcellulose) (HPC)",90 % of control
COc1ccc(C(=O)/C=C\c2ccc(Cl)c(Cl)c2)cc1,T/C,"dose: 100.0 mg/kg/injection, schedule: Q04DX002 (ip), vehicle: Klucel (hydroxypropylcellulose) (HPC)",100 % of control
same,T/C,"dose: 200.0 mg/kg/injection, schedule: Q04DX002 (ip), vehicle: Klucel (hydroxypropylcellulose) (HPC)",97 % of control
same,T/C,"dose: 400.0 mg/kg/injection, schedule: Q04DX002 (ip), vehicle: Klucel (hydroxypropylcellulose) (HPC)",107 % of control
Cc1cc(Cl)nc2ccc(Cc3ccc4nc(Cl)cc(C)c4c3)cc12,T/C,"dose: 100.0 mg/kg/injection, schedule: Q01DX001 (ip), vehicle: saline",91 % of control
same,T/C,"dose: 200.0 mg/kg/injection, schedule: Q01DX001 (ip), vehicle: saline",94 % of control
same,T/C,"dose: 400.0 mg/kg/injection, schedule: Q01DX001 (ip), vehicle: saline",96 % of control
COC(CSc1ncc2cnccn12)OC,T/C,"dose: 100.0 mg/kg/injection, schedule: Q01DX009 (ip), vehicle: water",102 % of control
same,T/C,"dose: 100.0 mg/kg/injection, schedule: Q04DX003 (ip), vehicle: water",103 % of control
same,T/C,"dose: 200.0 mg/kg/injection, schedule: Q01DX009 (ip), vehicle: water",100 % of control
same,T/C,"dose: 200.0 mg/kg/injection, schedule: Q04DX003 (ip), vehicle: water",106 % of control
same,T/C,"dose: 400.0 mg/kg/injection, schedule: Q01DX009 (ip), vehicle: water",100 % of control
same,T/C,"dose: 400.0 mg/kg/injection, schedule: Q04DX003 (ip), vehicle: water",108 % of control
CCCCC(=O)OCC(=O)[C@]1(O)Cc2c(O)c3c(c(O)c2[C@@H](OC2CC(NC(=O)C(F)(F)F)C(O)C(C)O2)C1)C(=O)c1c(OC)cccc1C3=O (stereo not given in full),T/C,"dose: 7.5 mg/kg/injection, schedule: Q01DX004 (ip), vehicle: saline with Tween-80",108 % of control and 112 % of control
same,T/C,"dose: 10.0 mg/kg/injection, schedule: Q01DX004 (ip), vehicle: saline with Tween-80",117 % of control and 119 % of control and 120 % of control
same,T/C,"dose: 30.0 mg/kg/injection, schedule: Q01DX004 (ip), vehicle: saline with Tween-80",166 % of control
same,T/C,"dose: 40.0 mg/kg/injection, schedule: Q01DX004 (ip), vehicle: other",164 % of control and 375 % of control
same,T/C,"dose: 50.0 mg/kg/injection, schedule: Q01DX004 (ip), vehicle: other",372 % of control and 470 % of control
same,T/C,"dose: 60.0 mg/kg/injection, schedule: Q01DX004 (ip), vehicle: other",177 % of control and 441 % of control
CCOC(=O)c1[nH]c2ccsc2c1CN(C)C,T/C,[3],102 % of control
same,T/C,[4],91 % of control
same,T/C,[5],97 % of control
